B1: IL-6: Porcine interleukin 6 (R&D systems) (protein, UniProt P26893 30-212, looked up)
Interleukin-6: ERLEEDAKGDATSDKMLFTSPDKTEELIKYILGKISAMRKEMCEKYEKCENSKEVLAENNLNLPKMAEKDGCFQSGFNQETCLMRITTGLVEFQIYLDYLQKEYESNKGNVEAVQISTKALIQTLRQKGKNPDKATTPNPTTNAGLLDKLQSQNEWMKNTKIILILRSLEDFLQFSLRAIRIM
B2: IL-10: Porcine interleukin 10 (R&D systems) (protein, UniProt Q29055 19-175, looked up)
Interleukin-10: SIKSENSCIHFPTSLPHMLRELRAAFGPVKSFFQTKDQMGDLLLTGSLLEDFKGYLGCQALSEMIQFYLEDVMPKAESDGEDIKEHVNSLGEKLKTLRLRLRRCHQFLPCENKSKAVEEVKSAFSKLQERGVYKAMGEFDIFINYIEAYMTMKMRKN

Assays:
[1] = system: PCV2-infected PK-15 cells; experiment: Number of PCV2-infected PK-15 cells (IPMA) after treatment with cytokines or natural cytokine sources; format: cell-based, Porcine circovirus 2; details: PK-15 cells; cytokine dilution series, before, during or after inoculation; 36 h
Procedure: PK-15 cells were seeded and maintained in culture medium containing 5%-10% fetal bovine serum (FBS), 0.3 mg/ml glutamine, 100 U/ml penicillin, 0.1 mg/ml streptomycin, 0.1 mg/ml kanamycin dissolved in minimal essential medium (MEM) (Gibco BRL®, Grand Island, USA) or dissolved in RPMI-1640 (GIBCO BRL®, Grand Island, USA) containing 1% nonessential amino acids (100×; GIBCO BRL®, Grand Island, USA) and 1 mM sodium pyruvate (GIBCO BRL®, Grand Island, USA). Cells were seeded at a concentration of 150,000 cells per ml of medium. For the detection of total viral antigen positive cells, the cells were seeded in 96-well microtiter plates (Nunc) (15,000-20,000 cells per well). To detect the expression of specific viral antigens, cells were seeded on sterile cover slips in Leighton tubes (150,000 cells per tube) and finally progeny virus production assays were performed in 24-well plates containing […].
(§1) In order to use cells, more related to the target cells in vivo, the monocytic cell line 3D4/31 was used to confirm the effect of the different cytokines on the number of PCV2-infected cells. The 3D4/31 cell line is a porcine monomyeloid cell lines that was established following transfection of primary porcine alveolar macrophage cultures with plasmid pSV3neo, carrying genes for neomycin resistance and SV40 large T antigen. (Weingartl et al. (2002) J Virol Methods. 10, 203-216). These cells were maintained in a 1:1 mixture of RPMI-1640 (Invitrogen) and DMEM (Invitrogen) supplemented with 10% fetal bovine serum, 0.3 mg/ml glutamine, 100 U/ml penicillin, 0.1 mg/ml streptomycin, 0.1 mg/ml kanamycin and 1% non-essential amino acids 100× (GIBCO BRL®, Grand Island, USA). These experiments were also performed in 96-well plates containing the same number of cells. Furthermore, to monitor the effect of IFN-gamma on the entry of PCV2 virion-like particles was determined, 3D4/31 cells were seeded at 2×10^5 cells/ml of medium onto microscopic slides mounted with an 8 well cell culture silicone chamber (Vivascience AG, Hanover). In all inoculations, the same PCV2-strain (Stoon-1010) was used at a multiplicity of infection of 0.01. The virus was diluted in MEM and inoculated on the cell cultures by incubating cells and virus for 1 hour at 37° C. After 1 hour, the inoculum was removed, the cultures were washed twice with MEM and new culture medium was added.
(§2) The influence of the cytokines on the infection of PCV2 in PK-15 and 3D4/31 cells was determined by adding two-fold-dilution series of the cytokines to the medium of the cells before, during or after the inoculation. IL-1, IL-6, […] and IFN-alpha were used in concentrations ranging from 0.25-250 Units/ml (U/ml), IFN-gamma was used in concentrations ranging from 0.25-1000 U/ml and IL-10 was used in concentrations from 0.13-125 U/ml. Cell cultures were either pre-treated with the cytokines for 24 hours before inoculation, treated during the inoculation or the cytokines were added in the medium after the inoculation. After 36 hours of incubation at 37° C. in an environment supplemented with 5% CO2, the cells were fixed by drying and frozen at −20° C. The plates were stained with an immuno-peroxydase monolayer assay (IPMA) as described by Sanchez et al. (2003, Vet Microbiol 95, 15-25) and the number of PCV2-positive cells was counted by light microscopy. In each plate a control was inoculated with an equal dose of mock-treated PCV2 (treated with MEM without cytokines). The number of infected cells in this well was used as the reference and all results were expressed as a ratio to this reference.
Two-fold dilutions of the BAL-fluids of the PRCV and mock-inoculated pigs were added to the medium of PCV2-inoculated PK-15 cells after inoculation. Concentrations of the added BAL-fluids ranged from 1.25 to 5%. Supernatants of ConA and mock-stimulated PBMC's were also added to the culture medium of PK-15 cells after inoculation in concentrations ranging from […] to 50%. […]

[2] = system: PCV2-infected 3D4/31 cells; experiment: Number of PCV2-infected 3D4/31 cells (IPMA) after cytokine treatment; format: cell-based, Porcine circovirus 2; details: 3D4/31 cells; any concentration, before, during or after inoculation
Text: as §1, §2

[3] = system: PCV2 strain Stoon-1010 in PK-15 cells; experiment: Progeny PCV2 production in PK-15 cells with acidification inhibitors and/or IFN-gamma; format: cell-based, Porcine circovirus 2
Procedure: For progeny virus production assays, 2×10^5 cells were seeded in every well of 24-well cell culture plates. Cells were pre-treated with or without 500 U/ml IFN-gamma at 6 hours post seeding. At 24 h post-seeding, cells were washed and inoculated with the prototype PCV2 strain Stoon-1010 at an m.o.i. of 0.3 for 1 hour at 37° C. The viral inoculum was washed-off and cells were further incubated in 1 ml of culture medium with or without 25 mM ammonium chloride, 125 μM chloroquine diphosphate and/or 6 μM monensin for 24 hours. Then, the culture medium with or without endosomal-lysosomal system acidification inhibitors was replaced with fresh culture medium without inhibitors. At 1, 24, 48 and 72 hours post-inoculation the supernatant was collected. Subsequently the culture was washed once with 1 ml PBS. Both the supernatant and the washing fluid were centrifuged for 10 minutes at 15,000×g to pellet cells and debris. The centrifuged supernatant and washing fluids were combined and considered to contain the extracellular virus. Both pellets and cell cultures were freeze-thawed three times and considered to contain the intracellular virus. Intra- and extracellular virus titres were determined by titration on PCV-negative PK-15 cells as described previously. Viral antigens were detected using an IPMA as described above and PCV2 titre was expressed as log10 TCID50 per 10^5 cells.

[4] = system: PCV2 infection of PK-15 cells; experiment: Number of PCV2-infected PK-15 cells (IPMA) with endosomal-lysosomal acidification inhibitors with or without IFN-gamma; format: cell-based, Porcine circovirus 2; details: for effect on PCV2 infection in IFN-gamma treated cells (in words): PK-15 pre-treated with 500 U/ml IFN-gamma 24 hours; for effect on PCV2 infection in IFN-gamma treated cells (in words) / effect on PCV2 infection compared to control (in words): inhibitor 24 hours after inoculation, 36 hpi; for effect on PCV2 infection compared to control (in words): PK-15 without IFN-gamma; for highest concentration exerting maximal effect without affecting cell viability (chosen): two-fold dilution in PK-15 cells, Stoon-1010
Procedure: Endosomal-lysosomal system acidification was inhibited using lysosomotropic weak bases (ammonium chloride and chloroquine diphosphate) and carboxylic ionophore monensin. All chemical compounds were purchased from Sigma. In a first set of experiments, a two-fold dilution of each inhibitor in PK-15 cells using Stoon-1010 was performed to determine the highest concentration of each inhibitor that exerted the maximal effect without affecting cell viability. Finally, 25 mM ammonium chloride, 125 μM chloroquine diphosphate and 6 μM monensin were chosen. PK-15 cells were cultivated for 24 hours and then inoculated with a dose of PCV2 for 1 hour at 37° C. The viral inoculum was washed-off and cells were further incubated in culture medium with or without inhibitors of endosomal-lysosomal acidification for 24 hours. Then, the culture medium containing endosomal-lysosomal system inhibitors was replaced with fresh culture medium without inhibitors. After the first cycle of PCV2 replication, at 36 hpi, cells were fixed with methanol at −20° C. for 10 minutes. Cells were stored at −20° C. until they were stained using an immunoperoxidase monolayer assay (IPMA) as described by Sanchez et al. (2003, Vet Microbiol 95, 15-25).
PK-15 cells were pre-treated with or without 500 U/ml IFN-gamma for 24 hours before they were inoculated with the same dose of PCV2 for 1 hour at 37° C. The viral inoculum was washed-off and cells were further incubated in culture medium containing inhibitors of endosomal-lysosomal acidification for 24 hours. Then, the culture medium containing endosomal-lysosomal system inhibitors was replaced with fresh culture medium without inhibitors. After the first cycle of PCV2 replication, at 36 hours post-inoculation cells were fixed with methanol at −20° C. for 10 minutes. Cells were stored at −20° C. until they were stained using an immunoperoxidase monolayer assay (IPMA) as described above. The number of infected cells per well in mock-treated cells inoculated with an equal dose of PCV2 as treated cells was used as the referent, and all results are expressed as a percentage of this referent. All experiments were performed three times, and each condition in a single experiment was performed in duplicate.

[5] = system: PCV2 (field strain Imp-1121); experiment: PCV2 replication in inoculated pigs given IFN-gamma or ConA; format: in vivo; details: pigs inoculated at 19 days of age; samples 10, 15, 21 days post inoculation
Procedure: Pigs are inoculated with PCV2 (field strain Imp-1121) at 19 days of age. These inoculated pigs are divided in 3 groups. One group contains control pigs (only PCV2). The second group of pigs receives recombinant IFN-gamma (100,000 U per pig every three days). The third group contains pigs that receive ConA (1.5 mg/kg every three days). At different times post inoculation (10, 15, 21 days) samples are collected and the replication of the virus is assessed.

[6] = IFN-gamma 500 U/ml pre-treatment

| Molecule | change in the number of PCV2-positive cells (in words) [1] | change in the number of PCV2-positive cells (in words) [2] | PCV2 titres at 1 hpi ([3]; IFN-gamma 0 U/ml) [TCID50 per 10^5 cells] | PCV2 titres at 24 hpi ([3]; IFN-gamma 0 U/ml) [TCID50 per 10^5 cells] | PCV2 titres at 48 hpi ([3]; IFN-gamma 0 U/ml) [TCID50 per 10^5 cells] | PCV2 titres at 72 hpi ([3]; IFN-gamma 0 U/ml) [TCID50 per 10^5 cells] | PCV2 titres at 1 hpi [3, 6] [TCID50 per 10^5 cells] | PCV2 titres at 24 hpi [3, 6] [TCID50 per 10^5 cells] | PCV2 titres at 48 hpi [3, 6] [TCID50 per 10^5 cells] | PCV2 titres at 72 hpi [3, 6] [TCID50 per 10^5 cells] | effect on PCV2 infection in IFN-gamma treated cells (in words) [4] | effect on PCV2 infection compared to control (in words) [4] | highest concentration exerting maximal effect without affecting cell viability (chosen) [4] [µM] | replication of PCV2 compared to control pigs (in words) [5] |
| --- | --- | --- | --- | --- | --- | --- | --- | --- | --- | --- | --- | --- | --- | --- |
| TNF-alpha | no significant change | did not induce a significant change |  |  |  |  |  |  |  |  |  |  |  |  |
| Cl.N [Ammonium chloride, ammonium chloride] |  |  | 2.1 | 1.9 | 3.0 | 3.8 | 1.6 | 3.0 | 4.0 | 4.8 | enhanced PCV2 infection | enhance PCV2 infection | 25000 |  |
| concanavalin A [ConA] |  |  |  |  |  |  |  |  |  |  |  |  |  | increase in the replication of PCV2 |
| CCN(CC)CCCC(C)Nc1ccnc2cc(Cl)ccc12 (stereo not shown) [Chloroquine diphosphate, chloroquine diphosphate] |  |  | 1.4 | 1.8 | 3.3 | 4.3 | 1.6 | 2.3 | 4.0 | 4.6 | enhanced PCV2 infection | enhance PCV2 infection | 125 |  |
| CC[C@@]1([C@@H]2O[C@@H]([C@H]3O[C@@](O)(CO)[C@H](C)C[C@@H]3C)C[C@@H]2C)CC[C@H]([C@]2(C)CC[C@]3(C[C@H](O)[C@@H](C)[C@@H]([C@@H](C)[C@@H](OC)[C@H](C)C(=O)O)O3)O2)O1 [Monensin, monensin] |  |  | 1.9 | 2.3 | 3.9 | 3.6 | 2.0 | 2.8 | 4.6 | 4.8 | enhanced PCV2 infection | enhance PCV2 infection | 6 |  |
| B1 | no significant change | did not induce a significant change |  |  |  |  |  |  |  |  |  |  |  |  |
| B2 | no significant change | did not induce a significant change |  |  |  |  |  |  |  |  |  |  |  |  |

From patent US9119806B2, “Culturing circular ssDNA viruses for the production of vaccines” (priority 2007, dated 2015)
